{
  "source": "patent US11903912B2",
  "about": "“Composition for preventing and treating breast cancer including selenopsammaplin A as active ingredients” (Seoul National University R & DB Foundation, priority 2019, dated 2024)",
  "key": {"[1]": {"system": "SK-HEP-1 human liver cancer cells", "assay": "SRB cytotoxicity test, SK-HEP-1", "type": "cell-based", "settings": "SRB assay, cultured 3 days", "method": "(§1) A cytotoxicity test was performed using synthesized selenopsammaplin A and derivatives thereof (Lee S K et al […] Chem Biol Interact 115:215-28).\n(§2) The cytotoxicity test was performed on a total of five representative cancer cell lines. The cytotoxicity of each compound was measured using an SRB assay method (human lung cancer cells, A549; human colon cancer cells, HCT116; human breast cancer cells, MDA-MB231; human liver cancer cells, SK-HEP-1; human gastric cancer cells, SNU638).\n(§3) Each cell line was sub-cultured once or twice using Roswell Park Memorial Institute (RPMI) medium 1640 (RPMI 1640) or Dulbecco's Modified Eagle's Medium (DMEM) containing 10% fetal bovine serum (FBS) inactivated by heat, 100 units/mL of penicillin, 100 μg/mL of streptomycin, and 250 ng/mL of amphotericin B at 37° C. for 1 week under a 5% CO2 condition. All cells were […] in liquid nitrogen, and then passaged three or more times to be used in the experiment. The effects of compounds on cell growth were measured using a sulforhodamine B (SRB) method (Lee et al (1998) Chemico-Biol Interact 115:215-228).\n(§4) Specifically, each human cancer cell line used in the present invention was sub-cultured in an RPMI medium containing 10% FBS, 1% PSF, and the like, and 10 μl of a sample dissolved in 10% DMSO and 190 μl (4-5×10^4 cells/ml) of the cell suspension were added to each well of a 96-well plate and cultured for 3 days. 190 μl of the cell suspension was added to at least 16 wells and cultured for 30 minutes, and used as a zero-day control. The cultured cells were fixed with 10% trichloroacetic acid (TCA) and then stained with an SRB solution, and the staining solution was dissolved with 10 mM Tris-base, and then absorbance at 515 nm was measured. Using the case of culturing in 10% DMSO as a control, cell viability according to each test material treatment was measured using Equation 1 below. Etoposide was used as a positive control. % Viability=(OD(sample)−OD(0-day))/(OD(10% DMSO)−OD(0-day))×100 [Equation 1]\n(§5) Assuming that a control not-treated with the sample was set at 100%, the values of sample-treated groups were expressed as percentage with respect to the control, and each test material treatment results were obtained as the mean±SEM of two or three tests. The IC50 value is the concentration of the test material for a 50% survival rate."}, "[2]": {"system": "A549 human lung cancer cells", "assay": "SRB cytotoxicity test, A549", "type": "cell-based", "settings": "SRB assay, cultured 3 days", "method": "as §1, §2, §3, §4, §5"}, "breast cancer metastasis": {"system": "breast cancer metastasis", "assay": "Breast cancer metastasis to organs in animal model, IVIS", "type": "in vivo, nude BALB/c mice", "settings": "5 mg/kg, 15 mg/kg", "excerpt": "Organs such as the lungs, liver, spleen, and kidneys were extracted from the animal model of Example 8, and the degrees of cancer metastasis in the control and the administered groups were indirectly photographed using IVIS (PerkinElmer) and are illustrated in FIG. 9."}, "breast tumors": {"system": "breast tumors", "assay": "Breast tumor growth in xenograft mouse model", "type": "in vivo, nude BALB/c mice", "method": "Breast cancer cells were injected into fat pads of nude BALB/c mice (8-week-old, female). When the tumor size reached about 200 mm^3, the compound was injected intraperitoneally three times a week. The tumor volume was calculated by the following equation: [volume […]=(L×W2)/2] and illustrated in FIG. 8A. 38 days after administration began, the mice were sacrificed and tumors were extracted, and the weights thereof were measured and illustrated in FIG. 8B. The body weights of the mice measured during the experiment are illustrated in FIG. 8C."}, "[3]": {"system": "MDA-MB231 human breast cancer cells", "assay": "SRB cytotoxicity test, MDA-MB231", "type": "cell-based", "settings": "SRB assay, cultured 3 days", "method": "as §1, §2, §3, §4, §5"}, "[4]": {"system": "EMT markers in MDA-MB-231 cells", "assay": "Gene expression of EMT markers, real-time PCR", "type": "cell-based, human", "settings": "MDA-MB-231, real-time PCR", "method": "To confirm the EMT-related gene expression levels of the human breast cancer cell line MDA-MB-231, an experiment was performed as follows. To examine the EMT marker expression levels of the human breast cancer cell line MDA-MB-231, breast cancer cells were spread at a concentration of 1×10^6 cells/well on an RPMI medium containing 10% FBS in a 100 mm culture dish, cultured at 37° C. for 24 hours under a 5% CO2 condition, and then washed twice with phosphate-buffered saline (PBS). Attached cells were washed twice with PBS, the TRI reagent (TRIzol (#15596-026, Invitrogen, Grand Island, N.Y.)) was used to disrupt the cells, and then CHCl3 was added thereto to extract RNA, followed by precipitation using isopropyl alcohol. The RNA precipitate was washed with 70% ethanol, dried in air, and then […] using nuclease-free water (AM9937, Ambion, Austin, Tex.), followed by heating at 55° C. for 10 minutes and heat treatment at 70° C. for 5 minutes, so that RNA was present in a single strand state. Total RNA was quantified using NanoDrop (ND-1000, Dae Myung Science, Seoul, Korea) and diluted to 1 μg/μL, and then cDNA was produced using Avian Myeloblastosis Virus (AMV) Reverse Transcriptase (M5108, Promega, Madison, Wis.) and an oligo(dT)15 primer (C110B, Promega, Madison, Wis.). A target gene was amplified in a MiniOpticon™ Real-time PCR Detection system (CFB-3120, Bio-Rad, Hercules, Calif.) using iQTM SYBR Green Supermix (#170-8880, Bio-Rad, Hercules, Calif.) and target gene-specific primers. Real-time PCR conditions were as follows: a PCR cycle of denaturation at 95° C. for 20 seconds; denaturation at 95° C. for 20 seconds; annealing at 56° C. for 20 seconds; and elongation at 72° C. for 30 seconds, and the PCR cycle was repeated 40 times, followed by the final process at 95° C. for 1 minute and at 55° C. for 1 minute. Ct values were determined by the method according to Livak K J et al ((1996) Method 25:402-408) using MJ Opticon Monitor software (Opticon Monitor 3.1.32, Bio-Rad, Hercules, Calif.), and calibrated with the Ct value of β-actin of the sample, and the mRNA expression of EMT markers in the breast cancer cell line is illustrated in FIGS. 7A to 7D."}, "[5]": {"system": "SNU638 human gastric cancer cells", "assay": "SRB cytotoxicity test, SNU638", "type": "cell-based", "settings": "SRB assay, cultured 3 days", "method": "as §1, §2, §3, §4, §5"}},
  "data": [
    {"smiles": "O=C(NCC[Se][Se]CCNC(=O)/C(Cc1ccccc1)=N/O)/C(Cc1ccccc1)=N/O", "note": "[Compound 2, (2E,2′E)-N,N′-(diselenediylbis(ethane-2,1-diyl))bis(2-(hydroxyimino)-3-phenylpropanamide)]", "values": [
      {"measurement": "IC50", "setting": "[1]", "result": 120, "unit": "nM"},
      {"measurement": "IC50", "setting": "[2]", "result": 80, "unit": "nM"},
      {"measurement": "degree of metastasis to each organ (lungs, liver, spleen, kidneys)", "setting": "breast cancer metastasis", "result": "significantly reduced"},
      {"measurement": "degree of metastasis to the lungs", "setting": "breast cancer metastasis", "result": "greatly reduced"},
      {"measurement": "tumor weight", "setting": "breast tumors; 38 days after administration began, compared to control, psammaplin A and paclitaxel groups", "result": "remarkably reduced"},
      {"measurement": "tumor volume", "setting": "breast tumors; intraperitoneally three times a week, compared to the control", "result": "remarkably reduced"},
      {"measurement": "body weights of the mice", "setting": "breast tumors; measured during the xenograft experiment", "result": "not affected"},
      {"measurement": "IC50", "setting": "[3]", "result": 60, "unit": "nM"},
      {"measurement": "mRNA expression of E-cadherin (CDH1)", "setting": "[4]", "result": "increased"},
      {"measurement": "mRNA expression of N-cadherin (CDH2)", "setting": "[4]", "result": "suppressed"},
      {"measurement": "mRNA expression of ZEB1", "setting": "[4]", "result": "suppressed"},
      {"measurement": "mRNA expression of vimentin (VIM)", "setting": "[4]", "result": "suppressed"},
      {"measurement": "IC50", "setting": "[5]", "result": 50, "unit": "nM"}
    ]}
  ]
}
